{"source": "patent US10280158B2", "about": "“Immune adjustment compound, use thereof and pharmaceutical composition comprising same” (SUZHOU CONNECT BIOPHARMACEUTICALS, LTD., priority 2013, dated 2019)", "key": {"human S1P1": {"biological_target": "T1, human S1P1 (Homo sapiens, UniProt P21453)", "T1 construct": "expressed in transfected cells; host or cells: CHO-S cells", "T1 sequence (P21453 whole entry)": "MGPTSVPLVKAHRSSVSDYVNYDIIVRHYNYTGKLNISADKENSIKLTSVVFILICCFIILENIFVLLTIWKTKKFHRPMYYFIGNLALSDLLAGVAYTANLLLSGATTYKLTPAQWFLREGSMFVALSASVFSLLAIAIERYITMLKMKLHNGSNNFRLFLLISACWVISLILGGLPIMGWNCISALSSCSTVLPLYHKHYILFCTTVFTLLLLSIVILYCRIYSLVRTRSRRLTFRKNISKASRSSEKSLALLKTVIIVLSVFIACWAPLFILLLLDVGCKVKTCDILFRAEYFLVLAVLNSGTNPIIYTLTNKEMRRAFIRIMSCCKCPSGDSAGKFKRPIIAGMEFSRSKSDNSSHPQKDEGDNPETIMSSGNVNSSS", "experiment": "Internalization effect experiment on S1P1 (CHO-S cells, Myc tag, flow cytometry)", "format": "cell-based", "source_text": "It is well known that S1P1 small molecule agonists can prevent lymphocytes from entering the peripheral circulation by inducing internalization of S1P1 on cell surface. In order to determine whether the compounds provided by present invention have an activity of inducing S1P1 internalization, CHO—S cells expressing human S1P1, to replace the lymphocytes, are used as detection system of S1P1 internalization. For ease of monitoring the S1P1 on cell surface, a Myc tag is fused to N-terminal of S1P1, thus the expression of S1P1 is analyzed by flow cytometry after incubating the cells with fluorescent-labeled antibody against the Myc tag.\nA 10 mM stock solution was prepared by dissolving compound 2 provided by the present invention in dimethyl sulfoxide (DMSO), and then the stock solution was diluted to different concentrations as desired with DMEM. CHO—S cells bearing human S1P1 with Myc tag were harvested and then adjusted to a density of one million cells per mL by Dulbecco's modified Eagle's medium (DMEM). Different concentrations of Compound 2 diluted in an equal volume were mixed and the cell suspension and then incubated at 37° C. for 1 hour. After incubation, the mixture was centrifuged at 800 RPM for 5 minutes to obtain the cells. The cells were resuspended in FACS buffer (PBS containing 1% BSA), and Myc antibody labelled with fluorescein isothiocyanate (FITC) (from Californian Miltenyi Biotec GmbH, USA) was added in and incubated for 1 hour on ice. The cells were washed, resuspended in pre-cooled FACS buffer and analysed by FACS Calibur flow cytometry."}, "[1]": {"system": "heart rate and QT interval", "experiment": "Telemetry assay of cardiovascular function in conscious beagle dog", "format": "in vivo", "details": "within 24 hours after administration", "method": "To determine whether Compound 2 has an effect on heart rate and QT interval, the compound was evaluated in a telemetry assay in conscious beagle dog.\nAn appropriate amount of CMC-Na was prepared as a 0.5% CMC-Na (w/v) solution with sterilized water for injection. The solution was prepared one day before administration.\nSolutions of Compound 2 (samples) with the concentration of 2, 6 and 20 mg/mL were prepared one day before administration as follows. An appropriate amount of Compound 2 was added into an appropriate amount of 0.5% CMC-Na solution. The obtained mixture was emulsified and homogenized on an emulsification isotropic machine. Theoretical concentrations of Compound 2 in the prepared sample solutions were 2, 6 and 20 mg/mL.\nA total of 8 animals and a Double Latin squared experimental design were used in this experiment. Administration cycles were separated by 3-5 days. One day before each administration cycle, the animals were weighted and fasted overnight. On the day of administration, telemetry system (Implantable physiological signal telemetry system 1, Data Science International Inc., USA) was turned on, test parameters were set, implants were activated and physiological indexes of the animals were recorded. […] Parameters would be analyzed using artificial set after the collection was completed. The data was, firstly, analyzed by PONEMAH Version 4.8 software automatically, and then checked point by point artificially for selected values. […] Time at which values were selected were recorded.\nStatistical software SPSS13.0 was used to process data in this experiment. […] Indexes of blood pressure, electrocardiogram, respiration and body temperature were expressed as “mean±standard error”, and then analyzed according to following procedure: firstly, homogeneity test was performed on the data by use of Levene Test, and if the data was uniform ([…]), single-factor variance analysis was performed; and if the result of variance analysis was significant (P≤0.05), Dunnett's multiple comparison was performed on difference between vehicle group and sample group. […]"}}}
{"smiles": "CC(C)Cc1ccc(-c2nc(-c3ccc(CN4CC(C(=O)O)C4)c(F)c3)no2)cc1", "note": "[Compound 2, 1-{2-fluoro-4-[5-(4-isobutylphenyl)-1,2,4-oxadiazol-3-yl]-benzyl}-3-azetidine carboxylic acid]", "values": [{"measurement": "EC50", "setting": "human S1P1; CHO-S cells expressing human S1P1, 1 hour at 37° C., read-out: Receptor Internalization (EC50) S1P1", "value": 9.83, "unit": "nM"}, {"measurement": "activity of inducing S1P1 internalization", "setting": "human S1P1; CHO-S cells expressing human S1P1, in words", "value": "dose-dependent manner"}, {"measurement": "QT interval versus vehicle", "setting": "[1]", "value": "no significant difference"}, {"measurement": "QTcF interval versus vehicle", "setting": "[1]", "value": "no significant difference"}, {"measurement": "heart rate versus vehicle", "setting": "[1]", "value": "no significant difference"}]}
